Results as given in patent US11903917B2, “MEK-inhibitor for the treatment of viral and bacterial infections” (priority 2017, dated 2024).
Read-outs that look alike come from different tables or passages of the source.

Key:
[1] = system: S. aureus 6850; assay: Over-night treated culture, bacterial titers (CFU/ml) and OD600; assay type: cell-based, Staphylococcus aureus; conditions: for effect on bacterial titers (CFU/ml): over night treatment, S. aureus 6850, vs solvent
[2] = system: MRSA strain USA300; assay: as above; assay type: cell-based, Staphylococcus aureus
[3] = system: S. aureus USA300; assay: MIC of antibiotics (MIC test stripes) after over-night treatment of bacteria with PD0184264; assay type: cell-based, Staphylococcus aureus; conditions: for MIC: Staphylococcus aureus, read-out: Minimal inhibitory concentration (MIC)
[4] = system: S. aureus 6850; assay: as above; assay type: cell-based, Staphylococcus aureus; conditions: for MIC: read-out: Minimal inhibitory concentration (MIC)
[5] = system: MRSA strain S. aureus (USA300); assay: Cell-free culture bacterial growth (OD600); conditions: 50 μM, monitored for 360 minutes, vs solvent DMSO
Method: Bacterial growth was monitored for 360 minutes.
MRSA bacteria were incubated with different concentrations of the MEK inhibitor ranging from 0-100 μM and bacterial growth was monitored six hours after cultivation.

[6] = Pharmacokinetics, drug in plasma after i.v. or per os application; assay type: in vivo, NMRI mice
Method: Blood was collected at 15 min, 30 min, 1 h, 2 h, 4 h, 6 h, 8 h and 24 h (test day 2) after administration and plasma was analysed for the presence of the drug. […] Blood was collected at 15 min, 30 min, 1 h, 2 h, 4 h, 6 h, 8 h and 24 h (test day 2) after administration and plasma was analysed for the presence of the drug. Each data point represents the mean value of three plasma samples. Graphpad Prism 7 software was used to illustrate both figures.
34.88 mg PD-0184264 were dissolved in 0.075 ml DMSO and further diluted with 0.225 ml Cremophor EL/2.7 ml PBS. […] 81.0 mg PD-0184264 were dissolved in 0.2 ml DMSO/0.6 ml Cremophor EL/3.2 ml PBS.
Eight week old male NMRI mice (Charles River Laboratories, Germany) with a body weight of 23.9-36.5 g at administration were used for pharmacokinetic studies. The animals were normally fed. Drinking water was available ad libitum.
Experiments were performed at LPT GmbH (Hamburg, Germany). Sufficient whole blood—taken under isoflurane anaesthesia—was collected to obtain at least 2×100 μl Li-Heparin plasma of 3 animals per group and time-point at the following times: 0 (predose), 15 min, 30 min, 1 h, 2 h, 4 h, 6 h, 8 h and 24 h (test day 2) after administration. The whole blood samples were instantly cooled using an Iso-Therm-Rack system (Eppendorf AG, Germany) until centrifugation within 0.5 hours after withdrawal. Immediately after centrifugation, the samples were stored at −20° C. until further analysis. Plasma analysis was performed using standard procedures at Prolytic GmbH (Frankfurt, Germany).
Drugs were either administrated using a single dosing on test day 1 by oral gavage or by Intravenous bolus injection into a tail vein. The Injection speed was 15 s/dose with an administration volume of 200 μl.

[7] = system: influenza A virus strain RB1 [A/Regensburg/D6/09 (H1N1 pdm09)]; assay: Progeny virus inhibition assay in A549 cells; assay type: cell-based
[8] = system: A549 cells; conditions: read-out: CC50 value; Haasbach et al. 2017; cited from earlier work
[9] = system: influenza A virus strain RB1 [A/Regensburg/D6/09 (H1N1 pdm09)]; conditions: against RB1, Haasbach et al. 2017; cited from earlier work
[10] = system: S. aureus 6850; assay type: cell-based, Staphylococcus aureus
[11] = system: S. aureus; assay: Resistance development during 17 days of constant treatment; assay type: cell-based, Staphylococcus aureus; conditions: 24 h cycles repeated for 17 days
[12] = S. aureus USA300, culture treated over night with PD0184264
[13] = S. aureus USA300, untreated (solvent) culture
[14] = S. aureus 6850, culture treated over night with 20 μM PD0184264
[15] = S. aureus 6850, untreated (solvent) culture
[16] = USA300, S. aureus USA300, culture treated over night with PD0184264
[17] = USA300, S. aureus USA300, untreated (solvent) culture
[18] = Staphylococcus aureus, 6850, S. aureus 6850, culture treated over night with 20 μM PD0184264
[19] = Staphylococcus aureus, 6850, S. aureus 6850, untreated (solvent) culture

Compound: N#CC(=C(/N)Sc1ccccc1N)/C(C#N)=C(\N)Sc1ccccc1N [U0126, reference compound]
- effect on bacterial titers (CFU/ml) [1]: minor reduction in bacterial titers
- effect on bacterial titers (CFU/ml) ([2]; over night treatment, MRSA USA300, vs solvent): minor reduction in bacterial titers

Compound: Penicillin
- Minimal inhibitory concentration (MIC) [3, 12]: 8 µg/mL
- Minimal inhibitory concentration (MIC) [3, 13]: >256 µg/mL
- Minimal inhibitory concentration (MIC) [4, 14]: 0.25 to 0.5 µg/mL
- Minimal inhibitory concentration (MIC) [4, 15]: 16 µg/mL

Compound: O=C(NOCC1CC1)c1ccc(F)c(F)c1Nc1ccc(I)cc1Cl [CI-1040, 2-(2-chloro-4-iodophenylamino)-N-(cyclopropylmethoxy)-3,4-difluoro benzamide, reference compound]
- bacterial growth (OD600) [5]: slightly inhibited
- drug in plasma at eight hours ([6]; 75 mg/kg i.v. application): almost no drug was detected
- drug in plasma at eight hours ([6]; 150 mg/kg per os application): almost no drug was detected
- reduction of virus titer [7]: 96.78±0.65%
- CC50 [8]: > 312000 nM
- effect on bacterial titers (CFU/ml) [1]: effective
- EC50 [9]: 26 nM
- intracellular bacterial titers [10]: no changes in intracellular bacterial load

Compound: Gentamicin
- reduction in bacterial titers ([1]; 0.5 μg/ml, over night, S. aureus 6850): no reduction in bacterial titers
- bacterial growth ([1]; concentrations higher than 1 μg/ml, over night, S. aureus 6850): strongly inhibited
- Minimal inhibitory concentration (MIC) [3, 12]: 0.12 µg/mL
- Minimal inhibitory concentration (MIC) [3, 13]: 1 µg/mL
- resistance development in S. aureus [11]: resistance development occurred during the first week of treatment
- Minimal inhibitory concentration (MIC) [4, 14]: 0.12 µg/mL
- Minimal inhibitory concentration (MIC) [4, 15]: 2 µg/mL
- reduction in bacterial titers ([2]; 0.5 μg/ml, over night, MRSA USA300): no reduction in bacterial titers
- bacterial growth ([2]; concentrations higher than 1 μg/ml, over night, MRSA USA300): strongly inhibited

Compound: CC[C@H]1OC(=O)[C@H](C)[C@@H](O[C@H]2C[C@@](C)(OC)[C@@H](O)[C@H](C)O2)[C@H](C)[C@@H](O[C@@H]2O[C@H](C)C[C@H](N(C)C)[C@H]2O)[C@](C)(O)C[C@@H](C)C(=O)[C@H](C)[C@@H](O)[C@]1(C)O [Erythromycin]
- resistance development in S. aureus [11]: readily develop resistances

Compound: O=C(O)c1cn(C2CC2)c2cc(N3CCNCC3)c(F)cc2c1=O [Ciprofloxacin]
- MIC [3, 16]: 4 to 8 µg/mL
- MIC [3, 17]: 8 µg/mL
- MIC [4, 18]: 0.12 to 0.25 µg/mL
- MIC [4, 19]: 0.25 µg/mL

Compound: CC(=O)NC[C@H]1CN(c2ccc(N3CCOCC3)c(F)c2)C(=O)O1 [Linezolid]
- MIC [3, 16]: 1 µg/mL
- MIC [3, 17]: 2 µg/mL
- MIC [4, 18]: 1 µg/mL
- MIC [4, 19]: 2 µg/mL

Compound: C[C@@H](O)[C@H]1C(=O)N2C(C(=O)O)=C(S[C@@H]3CN[C@H](C(=O)N(C)C)C3)[C@H](C)[C@H]12 [Meropenem]
- MIC [3, 16]: 0.06 µg/mL
- MIC [3, 17]: 0.12 to 0.25 µg/mL
- MIC [4, 18]: 0.03 µg/mL
- MIC [4, 19]: 0.06 µg/mL
